This data set can be described thus: Oral absorption.

For the molecule `CC(C)(O)[C@@H]1CC[C@](C)([C@H]2[C@@H](O)C[C@@]3(C)C4C[C@H](OC5OC(CO)C(O)C(O)C5O)C5C(C)(C)[C@@H](O)CC[C@@]56C[C@@]46CC[C@]23C)O1` (stereo partly drawn) [CMG, Cycloastragenol-6-O-β-D-glucoside], the oral absorption result is listed as “good oral absorption properties”.

The record behind these values is patent US8835134B2, “Cycloastragenol monoglucoside, preparation, pharmaceutical composition and application thereof” (Tianjin Institute of Pharmaceutical Research, priority 2007, dated 2014).
